{
  "source": "patent US11629121B2",
  "about": "“Benzylideneacetone derivative and use thereof” (KORPHARM CO., LTD., priority 2017, dated 2023)",
  "key": {"[1]": {"system": "osteoclast differentiation from bone marrow cells (RANKL and M-CSF)", "experiment": "TRAP assay, osteoclast differentiation and proliferation", "type": "cell-based, C57BL/6 mice", "conditions": "TRAP-positive multinucleated cells, mouse bone marrow cells, 6-7 days; read-out: osteoclast differentiation inhibitory activity IC50", "description": "The specific method of the TRAP assay is as follows:\nThe tibia and femur were aseptically excised from 6 to 8 weeks old male C57BL/6 mice, and bone marrow cells were collected aseptically with a syringe (21G, Korea Green Cross). Bone marrow cells were suspended in 500 μl of -MEM medium (Gibco BRL Co.) containing sodium bicarbonate (2.0 g/L), streptomycin (100 mg/L) and penicillin ([…]), and aliquoted into a 48-well plate, and assay was carried out with triplicate. The progenitor cells of osteoclasts, monocytes, were isolated and treated with RANKL and M-CSF, which are differentiation promoters, to differentiate into osteoclasts within 5-7 days.\n1) Sample preparation: KP2 to KP8 (0.5 μM, 1 μM, 5 μM or 10 μM), Fosamax (0.5 μM, 1 μM, 5 μM, or 10 μM) and the like were dissolved in DMSO (dimethylsulfoxide) or sterile distilled water at appropriate concentrations, respectively.\n2) Sample administration: The Samples were continuously administered to the medium at 1:20 (v/v; 25 μL of sample per 500 μL of medium) from the first day of culture of bone marrow cells, and the medium was replaced at 3 days intervals.\n3) Osteoclast differentiation measurement: Osteoclasts were defined as TRAP-positive multinucleated cells stained with TRAP. […] The reaction reagents were stored in the refrigerator until use.\nBone marrow cells were cultured in a medium containing differentiation factors for 6-7 days, and then the medium was removed, washed with PBS, and fixed in PBS containing 10% formalin for 2-5 minutes. After fixed for 1 minute with a 1:1 mixture of ethanol and acetone, and dried. The fixed cells were treated with TRAP staining solution for 60 minutes at 37° C. with light blocking, washed with PBS, and then stained with Hematoxylin.\nAmong the TRAP-positive cells in the microscope field, cells with two or more nuclei were determined as osteoclasts and the number of cells was measured."}, "[2]": {"system": "B16F10 mouse melanoma cell line", "experiment": "MTT assay, cancer cells B16F10", "type": "cell-based", "conditions": "48 hours, H16F10", "text": "(§1) The cytotoxicity against normal cells and cancer cells was confirmed using the MTT assay for the novel compounds KP2 to KP8 prepared in Example 1.\n(§2) MTT assay method is as follows:\n(§3) Normal cells (RAW264.7 rat macrophage cell line (osteoblast progenitor cell) and NIH3T3 mouse fibroblast line) and cancer cells (AGS human gastric cancer cell line, A549 human lung cancer cell line, HepG2 human liver cancer cell line, HCT116 human colon cancer cell line, PC3 human prostate cancer Cell line, Caki-1 human kidney cancer cell line, T24 human bladder cancer cell line, HT1080 human fibrosarcoma cell line, B16F10 mouse melanoma cell line) were cultured in 5% CO2 in 96-well plates containing DMEM with 10% FBS (fetal bovine serum). After incubation, KP2 to KP8 and controls (osmundacetone and 4-hydroxybenzalacetone) were added to the cell medium and incubated for 48 hours. Thereafter, 100 μl of MTT (0.5 mg/mL phosphate buffered saline) was added, followed by incubation for 2 hours. 100 μl of DMSO was added to each well, followed by incubation for 10 minutes, and the absorbance was measured at 550 nm using a microplate reader (SPCTRA MAX 340PC, Molecular Devices, USA). Absorbance is calculated by the formula below as an indicator of the number of cells that survived, and reproducibility was confirmed by three experiments.\n(§4) The rate of cell proliferation (%)=OD550(sample)/OD550(control)"}, "[3]": {"system": "AGS human gastric cancer cell line", "experiment": "MTT assay, cancer cells AGS", "type": "cell-based", "conditions": "48 hours", "text": "as §1, §2, §3, §4"}, "[4]": {"system": "NIH3T3 mouse fibroblast line", "experiment": "MTT assay, normal cells NIH3T3", "type": "cell-based", "conditions": "MTT assay, 48 hours, NTH3T3", "text": "as §1, §2, §3, §4"}, "[5]": {"system": "HCT116 human colon cancer cell line", "experiment": "MTT assay, cancer cells HCT116", "type": "cell-based", "conditions": "MTT assay, 48 hours, HCT116", "text": "as §1, §2, §3, §4"}, "[6]": {"system": "HepG2 human liver cancer cell line", "experiment": "MTT assay, cancer cells HepG2", "type": "cell-based", "conditions": "MTT assay, 48 hours, HepG2", "text": "as §1, §2, §3, §4"}, "[7]": {"system": "HT1080 human fibrosarcoma cell line", "experiment": "MTT assay, cancer cells HT1080", "type": "cell-based", "conditions": "48 hours", "text": "as §1, §2, §3, §4"}, "[8]": {"system": "Caki-1 human kidney cancer cell line", "experiment": "MTT assay, cancer cells Caki-1", "type": "cell-based", "conditions": "48 hours", "text": "as §1, §2, §3, §4"}, "[9]": {"system": "RAW264.7 rat macrophage cell line", "experiment": "MTT assay, normal cells RAW264.7", "type": "cell-based", "conditions": "MTT assay, 48 hours, RAW264.7", "text": "as §1, §2, §3, §4"}, "[10]": {"system": "T24 human bladder cancer cell line", "experiment": "MTT assay, cancer cells T24", "type": "cell-based", "conditions": "MTT assay, 48 hours, T24", "text": "as §1, §2, §3, §4"}, "[11]": {"system": "PC3 human prostate cancer Cell line", "experiment": "MTT assay, cancer cells PC3", "type": "cell-based", "conditions": "48 hours", "text": "as §1, §2, §3, §4"}, "[12]": {"system": "osteoblasts (mouse MC3T3-E1)", "experiment": "ALP (Alkaline phosphatase) assay, osteoblast activity", "type": "cell-based", "conditions": "MC3T3-E1, 14 days, percentage against control", "description": "Effect of KP4 to KP6 on proliferation and differentiation of osteoblast were confirmed using ALP (Alkaline phosphatase) assay, a method for measuring osteoblast activity.\nAlkaline phosphatase (ALP), which is present in the cell membranes of osteoblasts, is known as a marker of osteoblast activity and is a regulator of inorganic phosphate transport, cell division or differentiation during calcification. Therefore, ALP activity was measured to determine the effect of the compounds of the present invention on the activity of osteoblasts. ALP activity was indirectly calculated by measuring the amount of p-nitrophenol, which is produced from hydrolysis of p-nitrophenyl phosphate (pNPP, Sigma, St. Louis, Mo., USA) in which ALP act as a catalyst, using a microplate reader at 405 nm wavelength.\nSpecifically, osteoblasts (mouse MC3T3-E1) were aliquoted into a 96-well plate (3×10^3 cells/100 μL/well) with α-MEM medium containing ascorbic acid (50 μg/mL) and 10 mM β-glycerophosphate, a differentiation factors of osteoblast. Then, KP4 to KP6 of the present invention, and osmundacetone were added at a final concentration of 10 μM and 50 μM, followed by changing medium every 72 hours and incubating for 14 days. After 14 days, the culture medium was removed from each well, washed three times with PBS, lysed with 0.2% Nonidet P-40/10 mmol/L MgCl2, and then treated ultrasonic wave with sosonifier cell disrupter (Model W-380, Heat Systems-Ultrasonics Inc., Farmingdale, N.Y.) for 3 minutes. The cell lysate was centrifuged at 1500 g for 10 minutes and the supernatant was collected to measure ALP activity. To account for changes in ALP activity according to cell number differences, total protein levels were measured using bicinchoninic acid (BCA) protein assay kit with bovine serum albumin as the standard protein, and enzyme activity was expressed as a percentage against the control group without the compound treatment."}, "[13]": {"system": "A549 human lung cancer cell line", "experiment": "MTT assay, cancer cells A549", "type": "cell-based", "conditions": "MTT assay, 48 hours, A549", "text": "as §1, §2, §3, §4"}},
  "data": [
    {"compound": "CC(=O)/C=C/c1ccc(O)c(O)c1", "note": "[Osmundacetone, reference compound]", "values": [
      {"measurement": "IC50", "setting": "[1]", "result": 8, "unit": "µM"},
      {"measurement": "Cytotoxicity, B16F10 cells", "setting": "[2]", "result": "64.9 ± 59", "unit": "µM"},
      {"measurement": "LD63 Cancer cell AGS", "setting": "[3]", "result": "56.1 ± 2.1", "unit": "µM"},
      {"measurement": "LD50 Normal cells NTH3T3", "setting": "[4]", "result": ">5000", "unit": "µM"},
      {"measurement": "LD63 Cancer cell HCT116", "setting": "[5]", "result": "689 ± 27", "unit": "µM"},
      {"measurement": "LD63 Cancer cell HepG2", "setting": "[6]", "result": ">5000", "unit": "µM"},
      {"measurement": "LD63 Cancer cell HT1080", "setting": "[7]", "result": ">5000", "unit": "µM"},
      {"measurement": "LD63 Cancer cell Caki-1", "setting": "[8]", "result": "695 ± 14", "unit": "µM"},
      {"measurement": "LD50 Normal cells RAW264.7", "setting": "[9]", "result": "529 ± 41", "unit": "µM"},
      {"measurement": "LD63 Cancer cell T24", "setting": "[10]", "result": "2000 ± 250", "unit": "µM"},
      {"measurement": "LD63 Cancer cell PC3", "setting": "[11]", "result": "60.6 ± 14", "unit": "µM"},
      {"measurement": "% Activation of ALP activity", "setting": "[12]; 10 μM", "result": "115 ± 9.4", "unit": "%"},
      {"measurement": "% Activation of ALP activity", "setting": "[12]; 50 μM", "result": "279 ± 61", "unit": "%"},
      {"measurement": "LD63 Cancer cell A549", "setting": "[13]", "result": ">5000", "unit": "µM"}
    ]}
  ]
}
